Measured values reported in patent publication US20240287054A1, “COMPOUNDS THAT BIND NON-CANONICAL G-QUADRUPLEX STRUCTURES AND METHODS OF MAKING AND USING THE SAME” (The U.S.A., as Represented by the Secretary, Department of …, priority 2021, published 2024).

Columns and labels:
HIV HP-G4 = assay: FIA binding test with HIV HP-G4 ((3+1) hybrid structure)
Method: (§1) In this study, FIA was used for validating the bindings between certain bivalent and MYCN G4 oligos. To measure the binding affinity, a solution of each compound was prepared in triplicate in a 96 well-plate (Costar, black side clear bottom), resulting in a final concentration of 100 nM (5% final DMSO in the working solution). Unlabeled MYCN G4 DNA was folded based on the above-mentioned annealing method, then added into the well plate resulting in different concentrations by a seral dilution. The plate was incubated at room temperature for 30 min, followed by centrifuging at 500 rpm for 2 minutes. The fluorescence intensity was then quantitatively recorded by a Synergy Mx microplate reader (BioTek) at Ex 340 nm/Em 500 nm. The fluorescence intensities were then normalized, and the binding affinity was calculated by fitting the curve using one-site total model in GraphPad Prism 8.3.1 software.
(§2) In addition to the DMS-footprinting study, the bivalent binding mode of compound B33 toward MYCN hairpin-G4 was also investigated by comparing HP-G4s with different folding types. Four reported HP-G4s with parallel structure (BCL2), (3+1) hybrid structure (HIV and PIM1-form1), and (2+2) chair-type structure (PIM1-form2) were examined by FIA binding test using compound B33 (FIGS. 41A, 41B, 42A, 42B, 43A, 43B, 44A, and 44B). […]

PIM1-form1 HP-G4 = assay: FIA binding test with PIM1-form1 HP-G4 ((3+1) hybrid structure)
Method: as §1, §2

MYCN G4 DNA = assay: Fluorescence quenching of position-labeled MYCN G4 (2-AP at A11/A18/A24, 5′/3′-Cy5); format: binding, human
Method: Fluorescence intensity assay. In this disclosure, fluorescence intensity assay (FIA) was used for both validation of hit binding at a single dose and binding affinity determination. For validating hit compounds from SMM screening, 100 μM solution of each compound was prepared in triplicate in a 96 well-plate (Costar, black side clear bottom), resulting in 5% DMSO concentration. 5′Cy5-labeled MYCN G4 DNA was annealed as described above, then added into the well plate resulting in a final concentration of 100 nM. The plate was incubated shaking for 30 min, followed by centrifuging at 500 rpm for 2 minutes. The fluorescence intensity was then measured on a Synergy Mx microplate reader (BioTek) at Ex 649 nm/Em 670 nm. TMPyP4/DMSO were used as positive and negative controls, respectively. In certain examples, compounds were considered binders when a change of >10% change in fluorescence intensity was observed compared to that of negative control (DMSO solution). For binding affinity measurement, small molecule solutions were prepared as serial dilutions in DMSO. Then a final test plate was prepared by adding 5 μL small molecule solutions and 10 μL annealed DNA samples into 85 μL buffer solutions, resulting in the final small molecule concentrations from 0 to 250 μM (5% final DMSO concentration). The fluorescence intensities were normalized, and the binding affinity was calculated by fitting the curve using one-site total model in GraphPad Prism 8.3.1 software. The fluorescence titration using 3′-labeled oligonucleotides was also performed the same way.
2-Aminopurine (2-AP) fluorescence titration. Fluorescence titrations based on 2-aminopurine labeling were performed using the protocol reported previously. Briefly, MYCN G4 oligonucleotide with a 2-AP substitution at either A11 or A18 position was annealed by heating the sample to 95° C. for 5 min and cooling down to RT slowly. The oligonucleotide with folded structure was diluted to 10 μM in Tris buffer (10 mM Tris, pH7.0, 100 mM KCl, 0.005% Tween 20) and prepared in a black 96-well plate (Costar) in triplicate as designed. Small molecules were diluted in DMSO to obtain a series of solutions with concentrations ranging from 0.1 to 5 mM, and then diluted by 20 times added into the plate (5% DMSO final concentration). The final concentration of 2-AP DNA was 1 μM in the well plate. To obtain the background fluorescence, small molecule solutions without DNA were also prepared in the same plate. After incubation for 30 min at RT, the plate was briefly centrifuged and scanned in Synergy Mx microplate reader (BioTek) with Ex 310 nm/Em 365 nm. Fluorescence signals were calculated by averaging the intensities in triplicate wells after subtracting the references. Finally, the binding signals were normalized and the KD value was determined by fitting the curve using a nonlinear sigmoidal dose-response model with a variable slope in GraphPad Prism 8.3.1 software.
To further understand the binding details between compound MY-1 and MYCN G4, a series of FIA studies were designed and performed. […] After incubating 100 μM MY-1 with labeled DNA samples, fluorescence intensities were measured and compared to DMSO controls. Fluorescence of the A11 2-AP DNA sample was quenched by almost 100%, while the quenching percentages were 80% and 70% for A18 and A24 2-AP DNAs, respectively (FIG. 24B, FIGS. 25A-25C). […]

NBEB cells = assay: MTS cell survival assay; format: cell-based; details: up to 45 μM
Method: To examine the effects of G4-binding compounds on NBEB cells, live-cell imaging was performed using an Incucyte interface (described below). NBEB (5K/well), cells were seeded into 96-well plates in triplicate, treated with compound MY-8 at various concentrations (0-45 μM), and cultured until control wells reached confluence. For RT-qPCR and western blotting, NBEB (300K) cells were treated with MY-8 in 6-well dish for 48 h. To examine the time-dependent decrease in MYCNOs expression, cells were treated with 22.5 μM and 45 μM MY-8 and analyzed at various times (0, 4, 24, 48, 72 and 96 h). To validate cell viability, a Trypan Blue exclusion test was performed following treatment at 48 h and 96 h post treatment and the proportion of live versus dead cells was calculated using a hemocytometer.
Cell survival. Following live cell image analysis, a 3-(4, 5-dimethylthiazol-2-yl)-5-(3-carboxymethoxyphenyl)-2-(4-sulfophenyl)-2H-tetrazolium inner salt assay was performed to examine cell survival. (MTS; inner salt assay; Promega, America). Absorbance was measured with a microplate reader (BIO-RAD, America) at 490 nm wavelength. To calculate the proportion of viable cells, MY-8 treated cells were divided by the control samples from each group.

COc1ccc(-c2noc(-c3ccc(NCCCNc4c5ccc(Cl)cc5nc5ccc(OC)cc45)nn3)n2)cc1 [B33, N^1-(6-chloro-2-methoxyacridin-9-yl)-N^3-(6-(3-(4-methoxyphenyl)-1,2,4-oxadiazol-5-yl)pyridazin-3-yl)propane-1,3-diamine]
Kd (HIV HP-G4): 151 ± 26 nM | Kd (PIM1-form1 HP-G4): 279 ± 32 nM

COc1ccc(-c2noc(-c3ccc(NCCCN4CCCC4)nn3)n2)cc1 [MY-1, 6-(3-(4-methoxyphenyl)-1,2,4-oxadiazol-5-yl)-N-(3-(pyrrolidin-1-yl)propyl)pyridazin-3-amine]
fluorescence quenching, 3′-Cy5 labeled oligo (MYCN G4 DNA; 100 μM MY-1): 0% | fluorescence quenching, 5′-Cy5 labeled oligo (MYCN G4 DNA; 100 μM MY-1): 15% | fluorescence quenching, A11 2-AP DNA (MYCN G4 DNA; 100 μM MY-1 vs DMSO control): ~100% | fluorescence quenching, A18 2-AP DNA (MYCN G4 DNA; 100 μM MY-1 vs DMSO control): 80% | fluorescence quenching, A24 2-AP DNA (MYCN G4 DNA; 100 μM MY-1 vs DMSO control): 70%

COc1ccc(-c2noc(-c3ccc(NCCCN4CCCCCC4)nn3)n2)cc1 [MY-8, N-(3-(azepan-1-yl)propyl)-6-(3-(4-methoxyphenyl)-1,2,4-oxadiazol-5-yl)pyridazin-3-amine]
CC50 (NBEB cells): 20500 nM
